Test results from patent US11738006B2, “Pharmaceutical composition containing antifungal agent as active ingredient” (priority 2019, dated 2023).

Assay: Test on solubility to polyethylene glycol (visual check for insoluble luliconazole)
Type: physicochemical
Experimental: Examined was how luliconazole is dissolved by polyethylene glycol 200 having an average molecular weight of 190 to 210, polyethylene glycol 300 having an average molecular weight of 285 to 315, polyethylene glycol 400 having an average molecular weight of 380 to 420, and polyethylene glycol 600 having an average molecular weight of 570 to 630, each of which is represented by the formula HOCH2(CH2OCH2)nCH2OH (where n is an integer). To this end, the above polyethylene glycols (manufactured by NOF Corporation) were mixed with luliconazole according to the formulation presented in Table 1 below, and the properties of the solution (presence of insoluble matter (luliconazole)) were visually evaluated.

solubility for luliconazole (in polyethylene glycol 400 compared to polyethylene glycol 200, 300 and 600): highest solubility
solubility for luliconazole (in polyethylene glycols 200, 300, 400, and 600): high solubility
SMILES: N#C/C(=C1/SC[C@@H](c2ccc(Cl)cc2Cl)S1)n1ccnc1 [luliconazole, (R)-(−)-(E)-[4-(2,4-dichlorophenyl)-1,3-dithiolane-2-ylidene]-1-imidazolylacetonitrile]
